Assay results as given in patent publication US8410137B2, “Thiophene-2-carboxamide derivatives, preparation thereof and therapeutic use thereof” (Sanofi, priority 2008, dated 2013).

Assays:
[1] = Measurement (1): quantification of unchanged compound in mouse brain samples by LC-MS/MS, brain/plasma ratio; assay type: in vivo; settings: iv at 3 mg/kg, read-out: Ratio: amount present in the brain/amount present in the plasma
Description: The low penetration of the compounds of formula (I) at the haematoencephalic barrier (HEB) was evaluated in vivo by: • Measurement (1): the quantification of the compounds of formula (I) (unchanged) in mouse brain samples after intravenous (iv, 3 mg/kg) or oral administration, using the LC-MS/MS analytical technique. • The

[2] = molecular target: T1, CB1 receptors present in the brain (Mus musculus, UniProt P47746); experiment: Measurement (2): ex vivo [3H]-CP55940 binding assay in mouse brain after intravenous administration; settings: iv at 10 mg/kg, read-out: % of inhibition of the binding of [3H]-CP55940 with regard to the CB1 receptors present in the brain
T1 construct: from tissue; host or cells: whole animal (brain CB1 receptors, in vivo)

[3] = molecular target: T1, CB1 receptors present in the brain; experiment: Measurement (3): blocking of the hypothermic effect induced by CP55940; assay type: in vivo; settings: iv at 10 mg/kg

T1 sequence (P47746 whole entry): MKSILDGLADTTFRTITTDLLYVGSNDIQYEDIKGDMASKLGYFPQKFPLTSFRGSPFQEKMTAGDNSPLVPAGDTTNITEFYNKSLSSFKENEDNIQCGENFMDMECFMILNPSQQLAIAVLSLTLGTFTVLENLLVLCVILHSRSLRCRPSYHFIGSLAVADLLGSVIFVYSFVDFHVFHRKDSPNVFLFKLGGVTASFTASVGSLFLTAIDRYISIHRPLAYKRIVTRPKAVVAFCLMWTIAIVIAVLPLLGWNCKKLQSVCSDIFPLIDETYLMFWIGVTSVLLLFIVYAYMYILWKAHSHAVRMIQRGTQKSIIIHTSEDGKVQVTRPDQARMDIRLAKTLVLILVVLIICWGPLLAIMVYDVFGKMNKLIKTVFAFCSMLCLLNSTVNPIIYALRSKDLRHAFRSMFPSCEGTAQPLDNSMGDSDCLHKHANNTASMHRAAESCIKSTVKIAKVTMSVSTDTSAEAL

SMILES	Kp [1]	inhibition at 10 mg/kg [2] [%]	% of reversion of the hypothermic effect of CP55940 with regard to the CB1 receptors present in the brain [3] [%]
NC(=O)C1(c2ccccc2)CCN(C(=O)c2cc(-c3ccc(OCCCO)cc3)c(-c3ccc(Cl)cc3Cl)s2)CC1 [compound 8, 1-({5-(2,4-dichlorophenyl)-4-[4-(3-hydroxypropoxy)phenyl]-2-thienyl}carbonyl)-4-phenylpiperidine-4-carboxamide]	0.04	13	17.5
NC(=O)C1(c2ccccc2)CCN(C(=O)c2cc(-c3ccc(OCCCO)cc3)c(-c3ccccc3Cl)s2)CC1 [compound 45, 1-({5-(2-chlorophenyl)-4-[4-(3-hydroxypropoxy)phenyl]thien-2-yl}carbonyl)-4-phenylpiperidine-4-carboxamide]		32	35.5
